From US20080009418A1, “Selective Inhibitors” (Alchemia LTD., priority 2004, published 2008)

Legend:
[1] = molecular target: T1, Human neuropeptide Y (NPY-Y1) (Homo sapiens, UniProt P25929); assay: Radioligand binding, human neuropeptide Y NPY-Y1 membranes, FlashPlate, [125I]-PYY; conditions: compound at 10 μM; for A9: inhibition of radioligand binding / A9: inhibition of radioligand binding, human neuropeptide Y (NPY-Y1): [125I]-PYY; for A9: inhibition of radioligand binding: FlashPlate
T1 construct: purchased Perkin Elmer Biosignal
T1 sequence (P25929 1-384): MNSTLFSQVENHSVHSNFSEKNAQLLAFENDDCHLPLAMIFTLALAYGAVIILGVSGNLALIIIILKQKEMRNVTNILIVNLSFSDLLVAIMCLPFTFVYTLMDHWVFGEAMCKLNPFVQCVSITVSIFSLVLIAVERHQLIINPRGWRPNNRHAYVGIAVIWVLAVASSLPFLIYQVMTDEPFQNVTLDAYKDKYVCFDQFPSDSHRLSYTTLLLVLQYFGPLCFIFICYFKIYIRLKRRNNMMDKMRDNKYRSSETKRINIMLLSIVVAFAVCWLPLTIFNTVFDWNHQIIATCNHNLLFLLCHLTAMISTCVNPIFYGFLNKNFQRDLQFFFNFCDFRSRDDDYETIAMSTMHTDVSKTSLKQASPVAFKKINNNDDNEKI
Procedure, shortened: (§1)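 Cloned human receptor membranes were coated onto FlashPlate wells and incubated with radioligand and compound (added from a 0.5 mM DMSO daughter plate) for 1 hour at room temperature in the dark. Scintillation counting gave percent inhibition, with DMSO defining total and reference ligand defining non-specific binding.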

[2] = molecular target: T2, Human κ-Opioid (KOP) (Homo sapiens, UniProt P41145); assay: Radioligand binding, human κ-opioid (KOP) membranes, filtration, [3H]-Diprenorphine; conditions: compound at 10 μM; for A2: inhibition of radioligand binding / A2: inhibition of radioligand binding, human κ-opioid (KOP): [3H]-Diprenorphine; for A2: inhibition of radioligand binding: filtration
T2 construct: purchased Perkin Elmer Biosignal
T2 sequence (P41145 whole entry): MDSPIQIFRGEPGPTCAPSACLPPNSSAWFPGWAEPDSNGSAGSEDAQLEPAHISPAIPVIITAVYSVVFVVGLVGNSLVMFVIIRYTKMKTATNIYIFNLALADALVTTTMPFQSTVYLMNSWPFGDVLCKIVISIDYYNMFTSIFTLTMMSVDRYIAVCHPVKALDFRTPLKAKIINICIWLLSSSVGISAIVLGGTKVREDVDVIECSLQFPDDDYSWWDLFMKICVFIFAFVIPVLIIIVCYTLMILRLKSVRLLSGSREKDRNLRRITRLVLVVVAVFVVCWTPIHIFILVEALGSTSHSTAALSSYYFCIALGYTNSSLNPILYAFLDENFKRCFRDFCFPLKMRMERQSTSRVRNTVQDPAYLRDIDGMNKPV
Procedure, shortened: (§2)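 Filtration binding on cloned human receptor membranes (1 Unit/well), [125I]-Substance P for NK1 and [3H]-Diprenorphine for KOP, 1 h at room temperature. Filters PEI-presoaked, washed with cold 50 mM Tris-HCl pH 7.4, counted by scintillation; percent inhibition calculated, reference ligand defining non-specific binding.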

[3] = molecular target: T3, Human melanin-concentrating hormone (MCH1) (Homo sapiens, UniProt Q99705); assay: Radioligand binding, human melanin-concentrating hormone MCH1 membranes, FlashPlate, [125I]-S36057; conditions: compound at 10 μM; for A6: inhibition of radioligand binding: [125I]-S36057, FlashPlate; for A6: inhibition of radioligand binding, human melanin-concentrating hormone (MCH1): [125I]-S36057
T3 construct: purchased Perkin Elmer Biosignal
T3 sequence (Q99705 whole entry): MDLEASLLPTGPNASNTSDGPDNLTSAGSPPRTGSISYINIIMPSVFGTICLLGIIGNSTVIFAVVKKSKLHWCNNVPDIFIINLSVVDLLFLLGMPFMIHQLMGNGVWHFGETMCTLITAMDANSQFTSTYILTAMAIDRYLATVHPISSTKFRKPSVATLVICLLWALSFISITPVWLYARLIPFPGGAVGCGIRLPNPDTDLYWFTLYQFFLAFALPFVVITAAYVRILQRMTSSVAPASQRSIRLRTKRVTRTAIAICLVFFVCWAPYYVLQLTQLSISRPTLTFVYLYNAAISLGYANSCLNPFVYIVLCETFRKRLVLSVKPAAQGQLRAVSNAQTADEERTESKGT
Procedure, shortened: as §1

[4] = molecular target: T4, Human opioid (ORL1) (Homo sapiens, UniProt P41146); assay: Radioligand binding, human opioid ORL1 membranes, FlashPlate, [125I]-Nociceptin; conditions: compound at 10 μM; for A10: inhibition of radioligand binding / A10: inhibition of radioligand binding, human opioid (ORL1): [125I]-Nociceptin; for A10: inhibition of radioligand binding: FlashPlate
T4 construct: purchased Perkin Elmer Biosignal
T4 sequence (P41146 whole entry): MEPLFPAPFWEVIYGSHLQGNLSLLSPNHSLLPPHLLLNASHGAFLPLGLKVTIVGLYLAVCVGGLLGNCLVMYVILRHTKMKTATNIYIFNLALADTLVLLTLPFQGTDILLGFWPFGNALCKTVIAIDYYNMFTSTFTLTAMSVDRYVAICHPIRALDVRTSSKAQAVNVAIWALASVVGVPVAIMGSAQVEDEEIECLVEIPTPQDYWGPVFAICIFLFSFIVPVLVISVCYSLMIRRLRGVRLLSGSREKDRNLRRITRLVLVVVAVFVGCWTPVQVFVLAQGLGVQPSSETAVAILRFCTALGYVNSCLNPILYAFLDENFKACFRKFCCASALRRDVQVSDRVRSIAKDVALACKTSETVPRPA
Procedure, shortened: as §1

[5] = molecular target: T5, Human neurokinin (NK1) (Homo sapiens, UniProt P25103); assay: Radioligand binding, human neurokinin NK1 membranes, filtration, [125I]-Substance P; conditions: compound at 10 μM; for A8: inhibition of radioligand binding / A8: inhibition of radioligand binding, human neurokinin (NK1): [125I]-Substance P; for A8: inhibition of radioligand binding: filtration
T5 construct: purchased Perkin Elmer Biosignal
T5 sequence (P25103 whole entry): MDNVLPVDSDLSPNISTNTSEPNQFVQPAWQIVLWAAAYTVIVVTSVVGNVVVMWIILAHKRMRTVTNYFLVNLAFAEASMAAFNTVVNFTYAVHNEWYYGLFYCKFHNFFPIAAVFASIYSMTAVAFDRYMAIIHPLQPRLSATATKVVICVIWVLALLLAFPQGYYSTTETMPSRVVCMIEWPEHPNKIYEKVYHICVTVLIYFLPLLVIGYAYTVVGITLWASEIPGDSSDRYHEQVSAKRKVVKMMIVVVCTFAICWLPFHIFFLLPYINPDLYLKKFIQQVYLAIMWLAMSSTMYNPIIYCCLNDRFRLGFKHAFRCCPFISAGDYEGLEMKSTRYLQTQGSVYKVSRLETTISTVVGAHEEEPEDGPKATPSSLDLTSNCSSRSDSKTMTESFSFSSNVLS
Procedure, shortened: as §2

[6] = molecular target: T6, Human δ-opioid (DOP) (Homo sapiens, UniProt P41143); assay: Radioligand binding, human δ-opioid (DOP) membranes, FlashPlate, [3H]-Bremazocine; conditions: compound at 10 μM; for A1: inhibition of radioligand binding / A1: inhibition of radioligand binding, human δ-opioid (DOP): [3H]-Bremazocine; for A1: inhibition of radioligand binding: FlashPlate
T6 construct: purchased Perkin Elmer Biosignal
T6 sequence (P41143 whole entry): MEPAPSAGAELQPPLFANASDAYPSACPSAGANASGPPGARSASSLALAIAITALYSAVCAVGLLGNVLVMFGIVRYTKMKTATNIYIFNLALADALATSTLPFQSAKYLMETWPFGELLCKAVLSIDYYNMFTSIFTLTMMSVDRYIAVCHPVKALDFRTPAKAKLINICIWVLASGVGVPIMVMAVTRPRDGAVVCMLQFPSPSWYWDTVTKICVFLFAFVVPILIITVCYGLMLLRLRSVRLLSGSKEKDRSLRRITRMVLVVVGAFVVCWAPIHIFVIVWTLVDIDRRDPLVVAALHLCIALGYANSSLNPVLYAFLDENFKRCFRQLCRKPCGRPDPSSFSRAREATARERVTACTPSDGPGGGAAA
Procedure, shortened: as §1

[7] = molecular target: T7, Human Melanocortin (MC4) (Homo sapiens, UniProt P32245); assay: Radioligand binding, human melanocortin MC4 membranes, FlashPlate, [125I]-NDP-αMSH; conditions: compound at 10 μM; for A4: inhibition of radioligand binding / A4: inhibition of radioligand binding, human melanocortin (MC4): [125I]-NDP-αMSH; for A4: inhibition of radioligand binding: FlashPlate
T7 construct: purchased Perkin Elmer Biosignal
T7 sequence (P32245 whole entry): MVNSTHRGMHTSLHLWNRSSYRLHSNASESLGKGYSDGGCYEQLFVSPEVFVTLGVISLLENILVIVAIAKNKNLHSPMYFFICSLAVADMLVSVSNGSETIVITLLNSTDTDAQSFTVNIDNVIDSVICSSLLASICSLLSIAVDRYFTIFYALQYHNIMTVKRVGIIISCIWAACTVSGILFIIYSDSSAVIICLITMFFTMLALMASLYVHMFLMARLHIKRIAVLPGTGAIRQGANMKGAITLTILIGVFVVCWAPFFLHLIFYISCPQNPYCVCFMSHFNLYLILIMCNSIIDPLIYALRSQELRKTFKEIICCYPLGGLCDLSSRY
Procedure, shortened: as §1

[8] = molecular target: T8, Human μ-opioid (MOP) (Homo sapiens, UniProt P35372); assay: Radioligand binding, human μ-opioid (MOP) membranes, FlashPlate, [3H]-Naloxone; conditions: compound at 10 μM; for A7: inhibition of radioligand binding / A7: inhibition of radioligand binding, human μ-opioid (MOP): [3H]-Naloxone; for A7: inhibition of radioligand binding: FlashPlate
T8 construct: purchased Perkin Elmer Biosignal
T8 sequence (P35372 whole entry): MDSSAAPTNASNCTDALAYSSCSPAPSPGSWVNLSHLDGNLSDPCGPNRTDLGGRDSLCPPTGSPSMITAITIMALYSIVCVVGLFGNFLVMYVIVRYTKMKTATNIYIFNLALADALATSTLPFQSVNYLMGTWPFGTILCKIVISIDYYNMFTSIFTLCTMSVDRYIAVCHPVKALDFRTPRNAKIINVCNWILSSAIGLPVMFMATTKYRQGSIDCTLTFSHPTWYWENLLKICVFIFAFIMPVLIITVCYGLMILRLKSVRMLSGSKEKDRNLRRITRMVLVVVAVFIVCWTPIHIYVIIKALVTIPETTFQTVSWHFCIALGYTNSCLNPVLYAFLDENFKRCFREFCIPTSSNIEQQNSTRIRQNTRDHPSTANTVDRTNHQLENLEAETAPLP
Procedure, shortened: as §1

[9] = molecular target: T9, Mouse urotensin (mUR2) (Mus musculus, UniProt Q8VIH9); assay: Radioligand binding, mouse urotensin mUR2 membranes, FlashPlate, [125I]-Urotensin II; conditions: compound at 10 μM; for A11: inhibition of radioligand binding / A11: inhibition of radioligand binding, mouse urotensin (mUR2): [125I]-Urotensin II; for A11: inhibition of radioligand binding: FlashPlate
T9 construct: purchased Perkin Elmer Biosignal
T9 sequence (Q8VIH9 1-385): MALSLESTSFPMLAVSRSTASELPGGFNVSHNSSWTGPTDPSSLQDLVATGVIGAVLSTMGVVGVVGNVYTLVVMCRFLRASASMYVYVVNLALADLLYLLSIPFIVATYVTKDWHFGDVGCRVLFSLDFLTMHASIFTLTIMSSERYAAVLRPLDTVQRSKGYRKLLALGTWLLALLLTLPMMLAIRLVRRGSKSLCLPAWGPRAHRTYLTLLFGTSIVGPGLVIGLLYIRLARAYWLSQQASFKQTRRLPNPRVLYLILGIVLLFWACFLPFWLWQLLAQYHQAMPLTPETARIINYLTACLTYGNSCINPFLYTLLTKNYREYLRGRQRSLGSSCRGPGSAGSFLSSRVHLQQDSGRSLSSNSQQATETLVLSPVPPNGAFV
Procedure, shortened: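 Cloned mouse urotensin (mUR2) receptor membranes from Perkin Elmer Biosignal were immobilized in FlashPlate microplates using a proprietary coating. Each well got 19.5 μl buffer, then 0.5 μl of DMSO, reference ligand, or compound. Adding 5 μl of [125I]-Urotensin II, diluted to 5× final concentration in binding buffer, started binding. Plates were sealed with TopSeal-A and incubated 1 hour at room temperature in the dark. Wells were counted for 30 seconds each on a TopCount after a 60-second delay, and percentage inhibition was calculated.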

[10] = molecular target: T10, Human melanocortin (MC5) (Homo sapiens, UniProt P33032); assay: Radioligand binding, human melanocortin MC5 membranes, FlashPlate, [125I]-NDP-αMSH; conditions: compound at 10 μM; for A5: inhibition of radioligand binding / A5: inhibition of radioligand binding, human melanocortin (MC5): [125I]-NDP-αMSH; for A5: inhibition of radioligand binding: FlashPlate
T10 construct: purchased Perkin Elmer Biosignal
T10 sequence (P33032 whole entry): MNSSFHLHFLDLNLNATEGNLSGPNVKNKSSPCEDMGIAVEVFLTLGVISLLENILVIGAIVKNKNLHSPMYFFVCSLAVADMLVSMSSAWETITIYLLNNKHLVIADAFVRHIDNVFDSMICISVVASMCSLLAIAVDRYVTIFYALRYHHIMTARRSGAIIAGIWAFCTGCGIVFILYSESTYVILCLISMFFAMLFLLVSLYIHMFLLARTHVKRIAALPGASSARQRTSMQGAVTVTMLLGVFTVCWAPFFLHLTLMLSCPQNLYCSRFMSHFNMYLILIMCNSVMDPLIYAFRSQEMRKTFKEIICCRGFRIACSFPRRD
Procedure, shortened: as §1

[11] = molecular target: T11, Human Melanocortin (MC3) (Homo sapiens, UniProt P41968); assay: Radioligand binding, human melanocortin MC3 membranes, FlashPlate, [125I]-NDP-αMSH; conditions: compound at 10 μM; for A3: inhibition of radioligand binding / A3: inhibition of radioligand binding, human melanocortin (MC3): [125I]-NDP-αMSH; for A3: inhibition of radioligand binding: FlashPlate
T11 construct: purchased Perkin Elmer Biosignal
T11 sequence (P41968 whole entry): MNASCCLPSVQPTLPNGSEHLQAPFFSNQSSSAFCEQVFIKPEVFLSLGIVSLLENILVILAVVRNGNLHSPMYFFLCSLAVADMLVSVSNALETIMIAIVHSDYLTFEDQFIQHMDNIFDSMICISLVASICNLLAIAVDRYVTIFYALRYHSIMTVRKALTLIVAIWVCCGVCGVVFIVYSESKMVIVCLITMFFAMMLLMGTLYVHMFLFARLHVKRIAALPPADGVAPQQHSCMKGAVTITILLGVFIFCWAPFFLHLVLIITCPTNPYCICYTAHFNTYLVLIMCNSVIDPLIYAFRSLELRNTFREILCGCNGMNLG
Procedure, shortened: as §1

Row | Structure (SMILES) | A9: inhibition of radioligand binding [1] | A2: inhibition of radioligand binding [2] | A6: inhibition of radioligand binding [3] | A10: inhibition of radioligand binding [4] | A8: inhibition of radioligand binding [5] | A1: inhibition of radioligand binding [6] | A4: inhibition of radioligand binding [7] | A7: inhibition of radioligand binding [8] | A11: inhibition of radioligand binding [9] | A5: inhibition of radioligand binding [10] | A3: inhibition of radioligand binding [11] | A9: inhibition of radioligand binding, human neuropeptide Y (NPY-Y1) [1] | A2: inhibition of radioligand binding, human κ-opioid (KOP) [2] | A6: inhibition of radioligand binding, human melanin-concentrating hormone (MCH1) [3] | A10: inhibition of radioligand binding, human opioid (ORL1) [4] | A8: inhibition of radioligand binding, human neurokinin (NK1) [5] | A1: inhibition of radioligand binding, human δ-opioid (DOP) [6] | A4: inhibition of radioligand binding, human melanocortin (MC4) [7] | A7: inhibition of radioligand binding, human μ-opioid (MOP) [8] | A11: inhibition of radioligand binding, mouse urotensin (mUR2) [9] | further results
1 | CSC1OC(COCc2ccc(Cl)cc2)C(O)C(OCc2ccc(Cl)cc2)C1NC(=O)CN (stereo not shown) [compound 269] | − (“−” indicates less than 50% inhibition at 10 μM) | − (“−” indicates less than 50% inhibition at 10 μM) | − (“−” indicates less than 50% inhibition at 10 μM) | − (“−” indicates less than 50% inhibition at 10 μM) | + (“+” indicates greater than 50% inhibition at 10 μM) | − (“−” indicates less than 50% inhibition at 10 μM) | − (“−” indicates less than 50% inhibition at 10 μM) | − (“−” indicates less than 50% inhibition at 10 μM) | − (“−” indicates less than 50% inhibition at 10 μM) | − (“−” indicates less than 50% inhibition at 10 μM) | − (“−” indicates less than 50% inhibition at 10 μM) | – | – | – | – | – | – | – | – | – | –
2 | CSC1O[C@H](COCc2ccc3ccccc3c2)[C@@H](O)[C@@H](OCc2ccc(Cl)cc2)[C@H]1NC(=O)CCNC(=N)N (stereo partly shown) [compound 283] | − (“−” indicates less than 50% inhibition at 10 μM) | − (“−” indicates less than 50% inhibition at 10 μM) | − (“−” indicates less than 50% inhibition at 10 μM) | − (“−” indicates less than 50% inhibition at 10 μM) | + (“+” indicates greater than 50% inhibition at 10 μM) | − (“−” indicates less than 50% inhibition at 10 μM) | + (“+” indicates greater than 50% inhibition at 10 μM) | − (“−” indicates less than 50% inhibition at 10 μM) | − (“−” indicates less than 50% inhibition at 10 μM) | + (“+” indicates greater than 50% inhibition at 10 μM) | − (“−” indicates less than 50% inhibition at 10 μM) | – | – | – | – | – | – | – | – | – | –
3 | CO[C@H]1[C@H](O)[C@@H](COCc2ccc(Cl)cc2)OC(OCc2ccc(-c3ccccc3)cc2)[C@@H]1NC(=O)CCNC(=N)N (stereo partly shown) [compound 63] | – | – | – | – | – | – | – | – | – | – | – | – | – | – | – | – | – | – | – | – | A9 radioligand binding inhibition ([1]; human NPY-Y1 membranes): + (“+” indicates greater than 50% inhibition at 10 μM); A2 radioligand binding inhibition ([2]; human κ-opioid (KOP) membranes): + (“+” indicates greater than 50% inhibition at 10 μM); A6 radioligand binding inhibition ([3]; human MCH1 membranes): + (“+” indicates greater than 50% inhibition at 10 μM); A10 radioligand binding inhibition ([4]; human ORL1 membranes): + (“+” indicates greater than 50% inhibition at 10 μM); A8 radioligand binding inhibition ([5]; human neurokinin NK1 membranes): + (“+” indicates greater than 50% inhibition at 10 μM); A1 radioligand binding inhibition ([6]; human δ-opioid (DOP) membranes): − (“−” indicates less than 50% inhibition at 10 μM); A4 radioligand binding inhibition ([7]; human melanocortin MC4 membranes): + (“+” indicates greater than 50% inhibition at 10 μM); A7 radioligand binding inhibition ([8]; human μ-opioid (MOP) membranes): + (“+” indicates greater than 50% inhibition at 10 μM); A11 radioligand binding inhibition ([9]; mouse urotensin mUR2 membranes): − (“−” indicates less than 50% inhibition at 10 μM); A5 radioligand binding inhibition ([10]; human melanocortin MC5 membranes): + (“+” indicates greater than 50% inhibition at 10 μM); A3 radioligand binding inhibition ([11]; human melanocortin MC3 membranes): + (“+” indicates greater than 50% inhibition at 10 μM)
4 | N=C(N)NCC(=O)N[C@H]1C(OCc2ccc(Cl)cc2)O[C@H](COCc2ccccc2)[C@@H](O)[C@@H]1OCc1ccc2ccccc2c1 (stereo partly shown) [compound 514] | – | – | – | – | – | – | – | – | – | – | – | + (“+” indicates greater than 50% inhibition at 10 μM) | − (“−” indicates less than 50% inhibition at 10 μM) | + (“+” indicates greater than 50% inhibition at 10 μM) | + (“+” indicates greater than 50% inhibition at 10 μM) | + (“+” indicates greater than 50% inhibition at 10 μM) | − (“−” indicates less than 50% inhibition at 10 μM) | + (“+” indicates greater than 50% inhibition at 10 μM) | − (“−” indicates less than 50% inhibition at 10 μM) | − (“−” indicates less than 50% inhibition at 10 μM) | A5: inhibition of radioligand binding, human melanocortin (MC5) [10]: + (“+” indicates greater than 50% inhibition at 10 μM); A3: inhibition of radioligand binding, human melanocortin (MC3) [11]: + (“+” indicates greater than 50% inhibition at 10 μM)
5 | CSC1OC(COCc2ccc(-c3ccccc3)cc2)C(O)C(OCc2ccc3ccccc3c2)C1NC(=O)CCNC(=N)N (stereo not shown) [compound 314] | – | – | – | – | – | – | – | – | – | – | – | − (“−” indicates less than 50% inhibition at 10 μM) | − (“−” indicates less than 50% inhibition at 10 μM) | − (“−” indicates less than 50% inhibition at 10 μM) | − (“−” indicates less than 50% inhibition at 10 μM) | + (“+” indicates greater than 50% inhibition at 10 μM) | − (“−” indicates less than 50% inhibition at 10 μM) | − (“−” indicates less than 50% inhibition at 10 μM) | − (“−” indicates less than 50% inhibition at 10 μM) | − (“−” indicates less than 50% inhibition at 10 μM) | A5: inhibition of radioligand binding, human melanocortin (MC5) [10]: − (“−” indicates less than 50% inhibition at 10 μM); A3: inhibition of radioligand binding, human melanocortin (MC3) [11]: − (“−” indicates less than 50% inhibition at 10 μM)
